# Key:
# blackgrass = test: Test B pre/postemergence blackgrass; assay type: in vivo, Alopecurus myosuroides
# Summary of the method: (§1)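 Test chemicals in a non-phytotoxic solvent mixture with surfactant were sprayed preemergence onto planted seeds and postemergence onto plants 2 to 18 cm tall (1- to 4-leaf stage). After twelve to sixteen days in a greenhouse, injury was visually rated against untreated controls from 0 (no effect) to 10 (complete control).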
# surinam grass = test: Test B pre/postemergence surinam grass; assay type: in vivo, Brachiaria decumbens
# Summary of the method: as §1
# smallflower flatsedge = test: Test B flood test smallflower flatsedge; assay type: in vivo, Cyperus difformis
# Summary of the method: (§2)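 Flood test on plants grown to the 2-leaf stage; treated plants kept in greenhouse twelve to sixteen days, then visually rated against controls on a 0 (no effect) to 10 (complete control) scale.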
# cocklebur = test: Test B pre/postemergence cocklebur; assay type: in vivo, Xanthium strumarium
# Summary of the method: as §1
# rice = test: Test B flood test rice; assay type: in vivo, Oryza sativa
# Summary of the method: as §2
# soybean = test: Test B pre/postemergence soybean; assay type: in vivo, Glycine max
# Summary of the method: as §1
# pigweed = test: Test B pre/postemergence pigweed; assay type: in vivo, Amaranthus retroflexus
# Summary of the method: as §1
# morningglory = test: Test B pre/postemergence morningglory; assay type: in vivo, Ipomoea hederacea
# Summary of the method: as §1
# sugar beet = test: Test B pre/postemergence sugar beet; assay type: in vivo, Beta vulgaris
# Summary of the method: as §1
# velvetleaf = test: Test B pre/postemergence velvetleaf; assay type: in vivo, Abutilon theophrasti
# Summary of the method: as §1
# bamyardgrass = test: Test B flood test barnyardgrass; assay type: in vivo, Echinochloa crus-galli
# Summary of the method: as §2
# rape = test: Test B pre/postemergence rape; assay type: in vivo, Brassica napus
# Summary of the method: as §1
# bedstraw = test: Test B pre/postemergence bedstraw; assay type: in vivo, Galium aparine
# Summary of the method: as §1
# wild oat = test: Test B pre/postemergence wild oat; assay type: in vivo, Avena fatua
# Summary of the method: as §1
# purple nutsedge = test: Test B pre/postemergence purple nutsedge; assay type: in vivo, Cyperus rotundus
# Summary of the method: as §1
# corn = test: Test B pre/postemergence corn; assay type: in vivo, Zea mays
# Summary of the method: as §1
# [1] = Postemergence, Rate 125 g/ha, scale of 0 to 10 where 0 is no effect and 10 is complete control
# [2] = Postemergence, Rate 250 g/ha, scale 0 to 10, 0 no effect, 10 complete control
# [3] = Postemergence, Rate 1000 g/ha, scale 0 to 10 (0 no effect, 10 complete control)
# [4] = Preemergence, Rate 62 g/ha, scale 0 to 10 (0 no effect, 10 complete control)
# [5] = Preemergence, Rate 125 g/ha, scale 0 to 10 (0 no effect, 10 complete control)
# [6] = Preemergence, Rate 250 g/ha, scale of 0 to 10 where 0 is no effect and 10 is complete control
# [7] = Preemergence, Rate 500 g/ha, scale 0 (no effect) to 10 (complete control)
# [8] = Rate 62 g/ha, Postemergence, scale of 0 to 10 where 0 is no effect and 10 is complete control
# [9] = Rate 500 g/ha, Postemergence, scale 0 to 10, 0 no effect, 10 complete control
# [10] = Rate 1000 g/ha, Preemergence, scale 0 to 10 (0 no effect, 10 complete control)
# [11] = Postemergence, Rate 62 g/ha, scale 0 to 10, 0 is no effect, 10 is complete control
# [12] = Rate 125 g/ha, Postemergence, scale 0 to 10, 0 no effect, 10 complete control
# [13] = Postemergence (flood test species), Rate 125 g/ha, scale of 0 to 10 where 0 is no effect and 10 is complete control
# [14] = Rate 62 g/ha, Postemergence section, flood test species, scale of 0 to 10 where 0 is no effect and 10 is complete control
# [15] = Rate 250 g/ha, Postemergence (flood test), scale 0 to 10, 0 is no effect, 10 is complete control
# [16] = Rate 500 g/ha, listed under Postemergence (flood test species), scale 0 to 10, 0 no effect, 10 complete control
# [17] = Rate 250 g/ha, Postemergence, scale 0 to 10, 0 is no effect, 10 is complete control
# [18] = Preemergence, Rate 125 g/ha, 0 is no effect, 10 is complete control
compound,measurement,setting,value
CC(C)N(C(=O)n1oc(=O)n(C2CCCCC2C(F)(F)F)c1=O)c1ccc(F)cc1 (stereo not drawn) [Compound 99],Blackgrass plant response rating,blackgrass; [1],3
same,Blackgrass plant response rating,blackgrass; [2],6
same,Blackgrass plant response rating,blackgrass; [3],5
same,Blackgrass plant response rating,blackgrass; [4],0
same,"Plant response rating, Blackgrass",blackgrass; [5],3
same,"Plant response rating, Blackgrass",blackgrass; [6],4
same,Blackgrass plant response rating,blackgrass; [7],4
same,Blackgrass plant response rating,blackgrass; [8],3
same,Blackgrass plant response rating,blackgrass; [9],6
same,"Plant response rating, Blackgrass",blackgrass; [10],7
same,B. signalgrass plant response rating,surinam grass; [11],0
same,B. signalgrass plant response rating,surinam grass; [2],0
same,B. signalgrass plant response rating,surinam grass; [3],4
same,B. signalgrass plant response rating,surinam grass; [4],0
same,"Plant response rating, B. signalgrass",surinam grass; [5],0
same,"Plant response rating, B. signalgrass",surinam grass; [6],2
same,B. signalgrass plant response rating,surinam grass; [7],3
same,B. signalgrass plant response rating,surinam grass; [12],0
same,B. signalgrass plant response rating,"surinam grass; Rate 500 g/ha, Postemergence, scale of 0 to 10 where 0 is no effect and 10 is complete control",2
same,"Plant response rating, B. signalgrass",surinam grass; [10],6
same,S. Flatsedge plant response rating,smallflower flatsedge; [13],0
same,S. Flatsedge plant response rating,smallflower flatsedge; [3],3
same,S. Flatsedge plant response rating,smallflower flatsedge; [14],0
same,"Plant response rating, S. Flatsedge",smallflower flatsedge; [15],0
same,S. Flatsedge plant response rating,smallflower flatsedge; [16],2
same,Cocklebur plant response rating,cocklebur; [1],2
same,Cocklebur plant response rating,cocklebur; [2],2
same,Cocklebur plant response rating,cocklebur; [3],4
same,Cocklebur plant response rating,cocklebur; [4],0
same,"Plant response rating, Cocklebur",cocklebur; [5],0
same,"Plant response rating, Cocklebur",cocklebur; [6],0
same,Cocklebur plant response rating,cocklebur; [7],0
same,Cocklebur plant response rating,cocklebur; [8],0
same,Cocklebur plant response rating,cocklebur; [9],3
same,"Plant response rating, Cocklebur",cocklebur; [10],7
same,Rice plant response rating,rice; [13],0
same,Rice plant response rating,rice; [3],0
same,Rice plant response rating,rice; [14],0
same,"Plant response rating, Rice",rice; [15],0
same,Rice plant response rating,rice; [16],0
same,Soybean plant response rating,soybean; [1],2
same,Soybean plant response rating,soybean; [3],3
same,Soybean plant response rating,soybean; [4],0
same,"Plant response rating, Soybean",soybean; [5],0
same,"Plant response rating, Soybean",soybean; [6],0
same,Soybean plant response rating,soybean; [7],0
same,Soybean plant response rating,soybean; [8],2
same,"Plant response rating, Soybean",soybean; [17],3
same,Soybean plant response rating,soybean; [9],4
same,"Plant response rating, Soybean",soybean; [10],2
same,Redroot pigweed plant response rating,pigweed; [1],4
same,Redroot pigweed plant response rating,pigweed; [3],7
same,Redroot pigweed plant response rating,pigweed; [4],0
same,"Plant response rating, Redroot pigweed",pigweed; [5],0
same,"Plant response rating, Redroot pigweed",pigweed; [6],4
same,Redroot pigweed plant response rating,pigweed; [7],10
same,Redroot pigweed plant response rating,pigweed; [8],3
same,"Plant response rating, Redroot pigweed",pigweed; [17],5
same,Redroot pigweed plant response rating,pigweed; [9],7
same,"Plant response rating, Redroot pigweed",pigweed; [10],10
same,Morningglory plant response rating,morningglory; [1],3
same,Morningglory plant response rating,morningglory; [2],3
same,Morningglory plant response rating,morningglory; [3],9
same,Morningglory plant response rating,morningglory; [4],0
same,"Plant response rating, Morningglory",morningglory; [5],0
same,"Plant response rating, Morningglory",morningglory; [6],0
same,Morningglory plant response rating,morningglory; [7],0
same,Morningglory plant response rating,morningglory; [8],1
same,Morningglory plant response rating,morningglory; [9],5
same,"Plant response rating, Morningglory",morningglory; [10],3
same,Sugarbeets plant response rating,sugar beet; [1],4
same,Sugarbeets plant response rating,sugar beet; [3],5
same,Sugarbeets plant response rating,sugar beet; [4],0
same,Sugarbeets plant response rating (0 to 10 scale),sugar beet; [18],2
same,"Plant response rating, Sugarbeets",sugar beet; [6],2
same,Sugarbeets plant response rating,sugar beet; [7],4
same,Sugarbeets plant response rating,sugar beet; [8],2
same,"Plant response rating, Sugarbeets",sugar beet; [17],4
same,Sugarbeets plant response rating,sugar beet; [9],5
same,"Plant response rating, Sugarbeets",sugar beet; [10],6
same,Velvetleaf plant response rating,velvetleaf; [1],3
same,Velvetleaf plant response rating,velvetleaf; [3],7
same,Velvetleaf plant response rating,velvetleaf; [4],0
same,Velvetleaf plant response rating (0 to 10 scale),velvetleaf; [18],0
same,"Plant response rating, Velvetleaf",velvetleaf; [6],0
same,Velvetleaf plant response rating,velvetleaf; [7],3
same,Velvetleaf plant response rating,velvetleaf; [8],0
same,"Plant response rating, Velvetleaf",velvetleaf; [17],3
same,Velvetleaf plant response rating,velvetleaf; [9],5
same,"Plant response rating, Velvetleaf",velvetleaf; [10],0
same,Barnyardgrass plant response rating,bamyardgrass; [11],0
same,Barnyardgrass plant response rating,bamyardgrass; [3],8
same,Barnyardgrass plant response rating,"bamyardgrass; Rate 125 g/ha, Postemergence section (flood test species), scale 0 to 10, 0 no effect, 10 complete control",0
same,Barnyardgrass plant response rating,bamyardgrass; [16],5
same,Barnyardgrass plant response rating,"bamyardgrass; flood test, listed under Postemergence, Rate 250 g/ha, scale 0 to 10, 0 no effect, 10 complete control",0
same,Rape plant response rating,rape; [1],2
same,Rape plant response rating,rape; [2],4
same,Rape plant response rating,rape; [3],7
same,Rape plant response rating,rape; [4],0
same,"Plant response rating, Rape",rape; [5],0
same,"Plant response rating, Rape",rape; [6],0
same,Rape plant response rating,rape; [7],3
same,Rape plant response rating,rape; [8],2
same,Rape plant response rating,rape; [9],6
same,"Plant response rating, Rape",rape; [10],6
same,Bedstraw plant response rating,bedstraw; [11],3
same,Bedstraw plant response rating,bedstraw; [2],8
same,Bedstraw plant response rating,bedstraw; [4],0
same,"Plant response rating, Bedstraw",bedstraw; [5],0
same,"Plant response rating, Bedstraw",bedstraw; [6],0
same,Bedstraw plant response rating,bedstraw; [7],0
same,Bedstraw plant response rating,bedstraw; [12],5
same,Bedstraw plant response rating,bedstraw; [9],8
same,"Plant response rating, Bedstraw",bedstraw; [10],0
same,Wild oats plant response rating,wild oat; [1],0
same,Wild oats plant response rating,wild oat; [3],3
same,Wild oats plant response rating,wild oat; [4],0
same,Wild oats plant response rating (0 to 10 scale),wild oat; [18],3
same,"Plant response rating, Wild oats",wild oat; [6],3
same,Wild oats plant response rating,wild oat; [7],5
same,Wild oats plant response rating,wild oat; [8],0
same,"Plant response rating, Wild oats",wild oat; [17],0
same,Wild oats plant response rating,wild oat; [9],0
same,"Plant response rating, Wild oats",wild oat; [10],7
same,Nutsedge plant response rating,purple nutsedge; [1],0
same,Nutsedge plant response rating,purple nutsedge; [2],0
same,Nutsedge plant response rating,purple nutsedge; [3],0
same,Nutsedge plant response rating,purple nutsedge; [4],0
same,"Plant response rating, Nutsedge",purple nutsedge; [5],0
same,"Plant response rating, Nutsedge",purple nutsedge; [6],0
same,Nutsedge plant response rating,purple nutsedge; [7],6
same,Nutsedge plant response rating,purple nutsedge; [8],0
same,Nutsedge plant response rating,purple nutsedge; [9],0
same,"Plant response rating, Nutsedge",purple nutsedge; [10],10
same,Corn plant response rating,corn; [1],0
same,Corn plant response rating,corn; [2],0
same,Corn plant response rating,corn; [3],0
same,Corn plant response rating,corn; [4],0
same,"Plant response rating, Corn",corn; [5],0
same,"Plant response rating, Corn",corn; [6],0
same,Corn plant response rating,corn; [7],0
same,Corn plant response rating,corn; [8],0
same,Corn plant response rating,corn; [9],0
same,"Plant response rating, Corn",corn; [10],2
